The values below come from patent US7829754B2, “Method of cleaning heavy metals-containing soil” (Chubu Electric Power Co., Inc., priority 2004, dated 2010).

Like-named read-outs stand apart in the source and are kept apart here.

Data set [1] is classed as physicochemical. Here is the method: <Experiment 1. Test of Comparing Lead Dissolving Out Ability of Chelating Agent>
In order to study a kind of a chelating agent to be added to a contaminated soil, the lead dissolving out abilities of 26 types of chelating agents (chelate reagents) were compared (FIG. 2).
2) Chelating agent: Each chelating agent of 100 mmol·dm^−3 and pH 5.8 was prepared.
3) Five grams of 1) the subject soil and 50 ml of 2) the chelating agent were put into to a 100 ml vessel, and shaken (200 times/min) at 20° C. for 6 hours. Repeated cycle was 3.
4) For comparison, a contrast section was prepared, in which desalted water was added instead of the chelating agent in the 3).
5) After shaking, the sample after filtration was centrifuged at 15000 rpm for 5 minutes, and the supernatant liquid was further centrifuged again under the same condition.
6) From the separated supernatant liquid, a lead concentration was measured with an inductively coupled high frequency plasma spectrometry (ICP) device.

Data set [2] relates to Fagopyrum esculentum. The following applies: for Leaf dry weight / Stem dry weight / Stem lead concentration / Terrestrial dry weight / Terrestrial part lead accumulation amount / Terrestrial part lead concentration: soil B; for Leaf lead concentration: soil B (lead 13032 mg/kg), added one week before harvesting. Here is the method: A lead concentration in a soil or a plant body was analyzed using ICP-AES (inductively coupled plasma-atomic emission spectrometry) regarding a sample obtained by adding nitric acid and degrading this with a microwave.
A cultivating experiment was conducted as follows: in which Fagopyrum esculentum and Brassica juncca were cultivated in a lead-containing soil filled in a Wagnel pot, a chelating agent was further added to the soil, and a difference in a lead accumulating amount depending on the cultivating condition was examined.
In addition, considering influence on plants and environment such as a salt concentration damage, 1, 5, 10 and 20 mmol kg^−1 soil of chemical reagents were adopted as an addition concentration, and 300 ml/pot (soil 3 kg) was provided as an addition amount.
1) Test plant: Fagopyrum esculentum, trade name (Milkyway), Brassica juncea
2) Test soil: Soil B (sampled from an old firing range site, soil lead concentration 13032 mg/kg), contrast sample (mountain sand in Gifu Prefecture of Japan, soil lead concentration 21 mg/kg)

Data set [3] has as its system Fagopyrum esculentum. The data set can be described thus: Fagopyrum esculentum growth situation after addition of chelating agent.
Description: 3) The soil B (3 kg) and the contrast section soil (4.3 kg) which had been passed through a sieve (2 mm) were mixed with urea (N: 69 mg/kg soil), calcium superphosphate (P: 75 mg/kg soil), potassium chloride (K: 72 mg/kg soil), and magnesia lime (Mg: 67 mg/kg soil), and sufficiently stirred. 4) The test soil was filled into a Wagnel pot (1/5000a), and a plant was seeded (3 pits/pot, 3 grains/pit). 5) Four to five days after germination, the plant was thinned out to 3 individuals/pot. 6) Cultivation in a gross chamber (Environmental Condition) Temperature: 25° C.×12 h (8:00-20:00), 20° C.×12 h (20:00-8:00) Humidity: 60% Illumination: light condition (8:00-20:00), dark condition (20:00-8:00) Illuminance: 98001×, 180μ mmol˜m^−2·s^−1 7) Aspersion was performed at 100 ml/pot every day. 8) During a test term, a position of a pot was changed four times. 9) Individuals which were about to fall were induced by a support post. 10) One week before harvesting, a chelating agent at each concentration was added to the soil B. An addition amount was 300 ml/pot, and the chelating agent was carefully added to a surface of the soil so that the chelating agent was not contacted with the plant. On the day before addition of the chelating agent and on the day of addition, aspersion was not performed. […] 12) Repeated cycles in all sections were 3 (3 pots/test section).
The mark [4] stands for this setting: chelating agent 100 mmol·dm^−3, pH 5.8, Soil A, shaken at 20° C. for 6 hours, FIG. 2.
[5] abbreviates: chelating agent 10 mmol/kg soil.
Setting [6] is: chelating agent 20 mmol/kg soil.
Setting [7] is: per unit area, calculated, chelating agent 1 mmol/kg soil.
Where [8] appears, read: per unit area, calculated, chelating agent 5 mmol/kg soil.
[9] abbreviates: per unit area, calculated, chelating agent 10 mmol/kg soil.
[10] abbreviates: per unit area, calculated, chelating agent 20 mmol/kg soil.
Setting [11] is: four days after addition, 1 mmol/kg soil.
The mark [12] stands for this setting: four days after addition, 5 mmol/kg soil.
Setting [13] is: four days after addition, 10 mmol/kg soil.
Setting [14] is: four days after addition, 20 mmol/kg soil.

As for “disodium ethylenediamine tetraacetate [EDTA · 2Na, reference compound]”, the “lead dissolving out ability” value in data set [1] (setting [4]) is “high lead dissolving out ability”. For the same molecule, in the data set with Fagopyrum esculentum [2] (10, 20 mmol/kg soil, contrast section 2043 mg/kg), the “addition effect on lead concentration in stems” value is listed as “high addition effect”. Besides, the “addition effect on lead concentration in leaves” value with Fagopyrum esculentum [2] (10, 20 mmol/kg soil, contrast section 7971 mg/kg) is given as “high addition effect”. In the data set with Fagopyrum esculentum [2] (chelating agent 1 mmol/kg soil), the Leaf dry weight turned out to be 0.9799 g/plant, the Stem dry weight is on record as 1.7240 g/plant, the Stem lead concentration is 1791 mg/kg and the Terrestrial dry weight is listed as 2.7039 g/plant. Further, in the data set on Fagopyrum esculentum [2] (chelating agent 1 mmol/kg soil), the “Terrestrial part lead accumulation amount” value is on record as 0.0106 g/plant, the “Terrestrial part lead concentration” value is reported as 3926 mg/kg and the Leaf lead concentration is reported as 7683 mg/kg. In the data set with Fagopyrum esculentum [2] (chelating agent 5 mmol/kg soil), this molecule had a Leaf dry weight of 1.0307 g/plant, a Stem dry weight of 2.0750 g/plant, a Stem lead concentration of 2288 mg/kg and a Terrestrial dry weight of 3.1057 g/plant. Further, in the data set with Fagopyrum esculentum [2] (chelating agent 5 mmol/kg soil), the “Terrestrial part lead accumulation amount” value was 0.0157 g/plant, the “Terrestrial part lead concentration” value is reported as 5045 mg/kg and the Leaf lead concentration is listed as 10595 mg/kg. In the data set with Fagopyrum esculentum [2] (setting [5]), this molecule yielded a Leaf dry weight of 0.9617 g/plant, a Stem dry weight of 1.8899 g/plant, a Stem lead concentration of 3376 mg/kg and a Terrestrial dry weight of 2.8516 g/plant. Moreover, in the data set on Fagopyrum esculentum [2] (setting [5]), the “Terrestrial part lead accumulation amount” value worked out at 0.0244 g/plant, the “Terrestrial part lead concentration” value worked out at 8564 mg/kg and the Leaf lead concentration amounted to 18758 mg/kg. Also, in the data set with Fagopyrum esculentum [2] (setting [6]), the Leaf dry weight worked out at 0.6389 g/plant, the Stem dry weight was determined as 1.4969 g/plant, the Stem lead concentration is recorded as 8947 mg/kg and the Terrestrial dry weight worked out at 2.1358 g/plant. In the data set with Fagopyrum esculentum [2] (setting [6]), the “Terrestrial part lead accumulation amount” value is given as 0.0328 g/plant, the “Terrestrial part lead concentration” value is 15335 mg/kg and the Leaf lead concentration is given as 30303 mg/kg. The “Terrestrial part lead accumulation amount” value with Fagopyrum esculentum [2] (setting [7]) is 1.59 g/m^2. Also, the “Terrestrial part lead accumulation amount” value with Fagopyrum esculentum [2] (setting [8]) is recorded as 2.36 g/m^2. The “Terrestrial part lead accumulation amount” value with Fagopyrum esculentum [2] (setting [9]) was 3.66 g/m^2. Also, the “Terrestrial part lead accumulation amount” value in the data set with Fagopyrum esculentum [2] (setting [10]) is reported as 4.92 g/m^2. Moreover, the “Discoloration of leaf (number of individuals for which symptom was observed)” value (“Discoloration of leaf” below) with Fagopyrum esculentum [3] (setting [11]) is 3. In addition, in the data set with Fagopyrum esculentum [3] (setting [12]), the “Discoloration of leaf” value is given as 4, the “Leaf drop (number of individuals for which symptom was observed)” value (shortened to “Leaf drop”) was 1 and the “Wilting of leaf (number of individuals for which symptom was observed)” value (“Wilting of leaf” for short) is reported as 1. In the data set on Fagopyrum esculentum [3] (setting [13]), the “Discoloration of leaf” value turned out to be 6 and the “Wilting of leaf” value is on record as 2. For the same molecule, in the data set on Fagopyrum esculentum [3] (setting [14]), the “Discoloration of flower (number of individuals for which symptom was observed)” value stood at 9, the “Discoloration of leaf” value was determined as 9, the “Leaf drop” value is recorded as 2 and the “Wilting of leaf” value was 9. Also, in the data set on Fagopyrum esculentum [3] (setting [14]), the “yellow leaves, spotting and discoloration of leaves, and discoloration of a flower” value was “confirmed in all individuals”. Also, the discoloration of leaves entry in the data set with Fagopyrum esculentum [3] (two days after addition, 20 mmol/kg soil) was “discoloration of leaves was observed”.

`N[C@@H](CS)C(=O)O` [L-cysteine]: the “lead dissolving out ability” value in data set [1] (setting [4]) is given as “high lead dissolving out ability”.

`O=C([O-])CC(O)(CC(=O)[O-])C(=O)[O-].[Na+].[Na+].[Na+]` [Sodium citrate, sodium citrate]: the “lead dissolving out ability” value in data set [1] (setting [4]) is reported as “not so much higher than the aforementioned biodegradable chelating agents”; in data set [1] (pH 5.8), “high lead dissolving out ability”. In addition, the Leaf dry weight was found to be 0.9090 g/plant in the data set with Fagopyrum esculentum [2] (chelating agent 1 mmol/kg soil), 1.0308 g/plant in the data set on Fagopyrum esculentum [2] (chelating agent 5 mmol/kg soil), 0.7356 g/plant in the data set on Fagopyrum esculentum [2] (setting [5]) and 0.8797 g/plant with Fagopyrum esculentum [2] (setting [6]). In addition, the Stem dry weight in the data set with Fagopyrum esculentum [2] (chelating agent 1 mmol/kg soil) came out at 1.9892 g/plant; in the data set on Fagopyrum esculentum [2] (chelating agent 5 mmol/kg soil) it was 1.6837 g/plant; in the data set with Fagopyrum esculentum [2] (setting [5]) it was 1.7669 g/plant; in the data set on Fagopyrum esculentum [2] (setting [6]), 1.9099 g/plant. Besides, the Stem lead concentration in the data set on Fagopyrum esculentum [2] (chelating agent 1 mmol/kg soil) was 1815 mg/kg; with Fagopyrum esculentum [2] (chelating agent 5 mmol/kg soil), 1671 mg/kg; in the data set with Fagopyrum esculentum [2] (setting [5]) it was 1524 mg/kg; in the data set on Fagopyrum esculentum [2] (setting [6]), 2286 mg/kg. The Terrestrial dry weight in the data set with Fagopyrum esculentum [2] (chelating agent 1 mmol/kg soil) is given as 2.8982 g/plant; with Fagopyrum esculentum [2] (chelating agent 5 mmol/kg soil), 2.7145 g/plant; in the data set with Fagopyrum esculentum [2] (setting [5]), 2.5025 g/plant; in the data set on Fagopyrum esculentum [2] (setting [6]), 2.7896 g/plant. Moreover, the “Terrestrial part lead accumulation amount” value is on record as 0.0121 g/plant with Fagopyrum esculentum [2] (chelating agent 1 mmol/kg soil); 0.0101 g/plant in the data set on Fagopyrum esculentum [2] (chelating agent 5 mmol/kg soil); 0.0080 g/plant in the data set on Fagopyrum esculentum [2] (setting [5]); 0.0134 g/plant with Fagopyrum esculentum [2] (setting [6]); 1.82 g/m^2 in the data set on Fagopyrum esculentum [2] (setting [7]); 1.52 g/m^2 in the data set on Fagopyrum esculentum [2] (setting [8]). Moreover, the entries for the “Terrestrial part lead accumulation amount” value in the data set with Fagopyrum esculentum [2] (setting [9]) and in the data set on Fagopyrum esculentum [2] (setting [10]) were 1.20 g/m^2 and 2.01 g/m^2, respectively. The “Terrestrial part lead concentration” value in the data set with Fagopyrum esculentum [2] (chelating agent 1 mmol/kg soil) is on record as 4169 mg/kg; with Fagopyrum esculentum [2] (chelating agent 5 mmol/kg soil), 3732 mg/kg; in the data set on Fagopyrum esculentum [2] (setting [5]), 3191 mg/kg; in the data set on Fagopyrum esculentum [2] (setting [6]), 4806 mg/kg. In addition, the Leaf lead concentration in the data set on Fagopyrum esculentum [2] (chelating agent 1 mmol/kg soil) turned out to be 9320 mg/kg; in the data set with Fagopyrum esculentum [2] (chelating agent 5 mmol/kg soil), 7099 mg/kg; in the data set on Fagopyrum esculentum [2] (setting [5]), 7195 mg/kg; in the data set with Fagopyrum esculentum [2] (setting [6]), 10270 mg/kg. Further, the “Discoloration of leaf” value was determined as 5 in the data set on Fagopyrum esculentum [3] (setting [11]), 2 with Fagopyrum esculentum [3] (setting [12]), 4 in the data set on Fagopyrum esculentum [3] (setting [13]) and 5 with Fagopyrum esculentum [3] (setting [14]). Besides, in the data set on Fagopyrum esculentum [3] (setting [13]), the “Leaf drop” value worked out at 2. In addition, the “Wilting of leaf” value in the data set with Fagopyrum esculentum [3] (setting [13]) was found to be 4; in the data set with Fagopyrum esculentum [3] (setting [14]) it was 6.

For the molecule `O=C(O)CC(O)(CC(=O)O)C(=O)O` [citric acid], the “lead dissolving out ability” value in data set [1] (pH 5.8) was “high lead dissolving out ability”.

Regarding “tetrasodium L-glutamic acid diacetate [GLDA·4Na]”, the “lead dissolving out ability” value in data set [1] (setting [4]) was “high lead dissolving out ability”.

Consider `O=C([O-])CC(NCCNC(CC(=O)O)C(=O)[O-])C(=O)[O-].[Na+].[Na+].[Na+]` (centres unmarked) [EDDS·3Na, disodium ethylenediamine succinate], for which the “lead dissolving out ability” value in data set [1] (pH 5.8) is reported as “high lead dissolving out ability”.
